For the test, the target named is LSD1 (Homo sapiens (Human), UniProt O60341). As to the kind of experiment: LSD1 Histone Demethylase Biochemical Assay (LANCE LSD1/KDM1A demethylase assay). To be noted: 1 nM LSD-1 enzyme, 1 hour preincubation at 25° C., 0.4 μM Biotin-labeled Histone H3 peptide substrate. Here is the method: LSD1 Histone Demethylase Biochemical Assay
LANCE LSD1/KDM1A demethylase assay-10 μL of 1 nM LSD-1 enzyme (ENZO BML-SE544-0050) in the assay buffer (50 mM Tris, pH 7.5, 0.01% Tween-20, 25 mM NaCl, 5 mM DTT) were preincubated for 1 hour at 25° C. with 0.8 μL compound/DMSO dotted in black 384 well polystyrene plates. […] Reactions were stopped by addition of 10 μL 1× LANCE Detection Buffer (PerkinElmer CR97-100) supplemented with 1.5 nM Eu-anti-unmodified H3K4 Antibody (PerkinElmer TRF0404), and 225 nM LANCE Ultra Streptavidin (PerkinElmer TRF102) along with 0.9 mM Tranylcypromine-HCl (Millipore 616431). After stopping the reactions plates were incubated for 30 minutes and read on a PHERAstar FS plate reader (BMG Labtech).
On the technique in general: In TR-FRET formats the signal depends on donor and acceptor labels being close together.

Consider 21 molecules from US9695168B2 (Incyte Corporation, priority 2014, dated 2017).

Turning to `CCN1CCC[C@@H](COc2nc(-c3ccc(C#N)cc3)c(-c3ccc4c(c3)CC(=O)N4C)n3cncc23)C1` [Example 110, 4-[8-{[(3R)-1-ethylpiperidin-3-yl]methoxy}-5-(1-methyl-2-oxo-2,3-dihydro-1H-indol-5-yl)imidazo[1,5-a]pyrazin-6-yl]benzonitrile], the concentration for half-maximal inhibition (IC50) lay within 50 to 100 nM. For `CN(C)[C@H]1CCN(c2nc(-c3ccc(C#N)cc3)c(-c3ccc4c(c3)oc(=O)n4C)n3cncc23)C1` [Example 112, (S)-4-(8-(3-(dimethylamino)pyrrolidin-1-yl)-5-(3-methyl-2-oxo-2,3-dihydrobenzo[d]oxazol-6-yl)imidazo[1,5-a]pyrazin-6-yl)benzonitrile] the value was 50 to 100 nM; for `CCn1nnc2cc(-c3c(-c4ccc(C#N)cc4)cc(OC[C@@H]4CCCN(C)C4)c4cncn34)cnc21` [Example 117, 4-(5-(3-ethyl-3H-[1,2,3]triazolo[4,5-b]pyridin-6-yl)-8-{[(3R)-1-methylpiperidin-3-yl]methoxy}imidazo[1,5-a]pyridin-6-yl)benzonitrile], 50 to 100 nM.

Regarding `CC(O)CN1CCC[C@@H](COc2cc(-c3ccc(C#N)cc3)c(-c3cnc4c(c3)OCCO4)n3cncc23)C1` (stereo partly drawn) [Example 118, 4-(5-(2,3-dihydro[1,4]dioxino[2,3-b]pyridin-7-yl)-8-{[(3R)-1-(2-hydroxypropyl)piperidin-3-yl]methoxy}imidazo[1,5-a]pyridin-6-yl)benzonitrile], the half-inhibitory concentration (IC50) lay in the range of 50 to 100 nM. `CC(O)CN1CCC[C@@H](COc2cc(-c3ccc(C#N)cc3)c(-c3cnc4ccoc4c3)n3cncc23)C1` (stereo partly drawn) [Example 119, 4-(5-(furo[3,2-b]pyridin-6-yl)-8-(((3R)-1-(2-hydroxypropyl)piperidin-3-yl)methoxy)imidazo[1,5-a]pyridin-6-yl)benzonitrile]: the IC50 lay in the range of 50 to 100 nM. As for `CC(O)c1c(F)cc(-c2c(-c3ccc(C#N)cc3)cc(OC[C@@H]3CCCN(C)C3)c3cncn23)cc1F` (stereo partly drawn) [Example 124, 4-(5-[3,5-difluoro-4-(1-hydroxyethyl)phenyl]-8-{[(3R)-1-methylpiperidin-3-yl]methoxy}imidazo[1,5-a]pyridin-6-yl)benzonitrile], the concentration for half-maximal inhibition (IC50) was 50 to 100 nM. Molecule `CN1CCC[C@@H](COc2cc(-c3ccc(C#N)cc3)c(-c3ccc(C(C)(C)C#N)nc3)n3cncc23)C1` [Example 132, 4-(5-[6-(1-cyano-1-methylethyl)pyridin-3-yl]-8-{[(3R)-1-methylpiperidin-3-yl]methoxy}imidazo[1,5-a]pyridin-6-yl)benzonitrile] had a concentration for half-maximal inhibition (IC50) of 50 to 100 nM. For `CCc1ccc(-c2c(-c3ccc(C#N)cc3)cc(OC[C@@H]3CCCN(C)C3)c3cncn23)cn1` [Example 133, 4-(5-(6-ethylpyridin-3-yl)-8-{[(3R)-1-methylpiperidin-3-yl]methoxy}imidazo[1,5-a]pyridin-6-yl)benzonitrile] the value was 50 to 100 nM; for `CNC(=O)c1ccc(-c2c(-c3ccc(C#N)cc3)cc(OC[C@@H]3CCCN(C)C3)c3cncn23)cn1` [Example 135, 5-(6-(4-cyanophenyl)-8-{[(3R)-1-methylpiperidin-3-yl]methoxy}imidazo[1,5-a]pyridin-5-yl)-N-methylpyridine-2-carboxamide], 50 to 100 nM; for `Cc1ncc(-c2c(-c3ccc(C#N)cc3)nc(N3CCC(N(C)C)CC3)c3cncn23)cc1C(F)F` [Example 140, 4-{5-[5-(difluoromethyl)-6-methylpyridin-3-yl]-8-[4-(dimethylamino)piperidin-1-yl]imidazo[1,5-a]pyrazin-6-yl}benzonitrile], 50 to 100 nM.

In the case of `CNC(=O)c1ccc(-c2c(-c3ccc(C#N)cc3)nc(N3CCC(N(C)C)CC3)c3cncn23)cn1` [Example 141, 5-{6-(4-cyanophenyl)-8-[4-(dimethylamino)piperidin-1-yl]imidazo[1,5-a]pyrazin-5-yl}-N-methylpyridine-2-carboxamide], the IC50 fell in the range of 100 to 500 nM.

As for `CCN1CCC[C@@H](COc2cc(-c3ccc(C#N)cc3)c(-c3ccc(C)nc3)n3cncc23)C1` [Example 146, 4-[8-{[(3R)-1-ethylpiperidin-3-yl]methoxy}-5-(6-methylpyridin-3-yl)imidazo[1,5-a]pyridin-6-yl]benzonitrile], the half-maximal inhibitory concentration (IC50) is 50 to 100 nM. Molecule `COCc1cc(-c2c(-c3ccc(C#N)cc3)cc(OC[C@@H]3CCCN(C)C3)c3cncn23)cnc1C` [Example 147, 4-(5-[5-(methoxymethyl)-6-methylpyridin-3-yl]-8-{[(3R)-1-methylpiperidin-3-yl]methoxy}imidazo[1,5-a]pyridin-6-yl)benzonitrile] showed a half-maximal inhibitory concentration (IC50) of 50 to 100 nM. For `COc1ncc(-c2c(-c3ccc(C#N)cc3)nc(N3CCC(N(C)C)CC3)c3cncn23)cn1` [Example 150, 4-[8-[4-(dimethylamino)piperidin-1-yl]-5-(2-methoxypyrimidin-5-yl)imidazo[1,5-a]pyrazin-6-yl]benzonitrile] the value was 100 to 500 nM; for `CN1CCC[C@@H](COc2cc(-c3ccc(C#N)cc3)c(-c3ccc(C(C)(C)O)nc3)n3cncc23)C1` [Example 151, 4-(5-[6-(1-hydroxy-1-methylethyl)pyridin-3-yl]-8-{[(3R)-1-methylpiperidin-3-yl]methoxy}imidazo[1,5-a]pyridin-6-yl)benzonitrile], 100 to 500 nM. With `CN1CCC[C@@H](COc2cc(-c3ccc(C#N)cc3)c(-c3cnc4c(c3)OCC(=O)N4C)n3cncc23)C1` [Example 152, (R)-4-(5-(4-methyl-3-oxo-3,4-dihydro-2H-pyrido[3,2-b][1,4]oxazin-7-yl)-8-((1-methylpiperidin-3-yl)methoxy)imidazo[1,5-a]pyridin-6-yl)benzonitrile], the half-maximal inhibitory concentration (IC50) lay in the range of 50 to 100 nM. Molecule `CN1CCC[C@@H](COc2cc(-c3ccc(C#N)cc3)c(-c3ccc4c(c3)CN(C)C4=O)n3cncc23)C1` [Example 154, 4-(5-(2-methyl-1-oxo-2,3-dihydro-1H-isoindol-5-yl)-8-{[(3R)-1-methylpiperidin-3-yl]methoxy}imidazo[1,5-a]pyridin-6-yl)benzonitrile] came in with a concentration for half-maximal inhibition (IC50) of 100 to 500 nM.

In the case of `CC(C)n1nnc2cc(-c3c(-c4ccc(C#N)cc4)cc(OC[C@@H]4CCCN(C)C4)c4cncn34)cnc21` [Example 155, (R)-4-(5-(3-isopropyl-3H-[1,2,3]triazolo[4,5-b]pyridin-6-yl)-8-((1-methylpiperidin-3-yl)methoxy)imidazo[1,5-a]pyridin-6-yl)benzonitrile], the IC50 is 100 to 500 nM.

`CN1CCC[C@@H](COc2cc(-c3ccc(C#N)cc3)c(-c3cnc4c(c3)nnn4C3CC3)n3cncc23)C1` [Example 156, (R)-4-(5-(3-cyclopropyl-3H-[1,2,3]triazolo[4,5-b]pyridin-6-yl)-8-((1-methylpiperidin-3-yl)methoxy)imidazo[1,5-a]pyridin-6-yl)benzonitrile]: the IC50 was 100 to 500 nM. Consider `CC(C)c1nc2cc(-c3c(-c4ccc(C#N)cc4)cc(OC[C@@H]4CCCN(C)C4)c4cncn34)cnc2n1C` [Example 157, (R)-4-(5-(2-isopropyl-3-methyl-3H-imidazo[4,5-b]pyridin-6-yl)-8-((1-methylpiperidin-3-yl)methoxy)imidazo[1,5-a]pyridin-6-yl)benzonitrile], for which the concentration for half-maximal inhibition (IC50) was in the range of 100 to 500 nM. Turning to `CN1CCC[C@@H](COc2cc(-c3ccc(C#N)cc3)c(-c3cnc4c(c3)nc(C3CC3)n4C)n3cncc23)C1` [Example 158, (R)-4-(5-(2-cyclopropyl-3-methyl-3H-imidazo[4,5-b]pyridin-6-yl)-8-((1-methylpiperidin-3-yl)methoxy)imidazo[1,5-a]pyridin-6-yl)benzonitrile], the half-maximal inhibitory concentration (IC50) was 100 to 500 nM.

In general, IC50 refers to the concentration at which inhibition is half-maximal.
